target: T1, Progesterone receptor (Homo sapiens, UniProt P06401); assay: not given
T1 sequence (P06401 whole entry): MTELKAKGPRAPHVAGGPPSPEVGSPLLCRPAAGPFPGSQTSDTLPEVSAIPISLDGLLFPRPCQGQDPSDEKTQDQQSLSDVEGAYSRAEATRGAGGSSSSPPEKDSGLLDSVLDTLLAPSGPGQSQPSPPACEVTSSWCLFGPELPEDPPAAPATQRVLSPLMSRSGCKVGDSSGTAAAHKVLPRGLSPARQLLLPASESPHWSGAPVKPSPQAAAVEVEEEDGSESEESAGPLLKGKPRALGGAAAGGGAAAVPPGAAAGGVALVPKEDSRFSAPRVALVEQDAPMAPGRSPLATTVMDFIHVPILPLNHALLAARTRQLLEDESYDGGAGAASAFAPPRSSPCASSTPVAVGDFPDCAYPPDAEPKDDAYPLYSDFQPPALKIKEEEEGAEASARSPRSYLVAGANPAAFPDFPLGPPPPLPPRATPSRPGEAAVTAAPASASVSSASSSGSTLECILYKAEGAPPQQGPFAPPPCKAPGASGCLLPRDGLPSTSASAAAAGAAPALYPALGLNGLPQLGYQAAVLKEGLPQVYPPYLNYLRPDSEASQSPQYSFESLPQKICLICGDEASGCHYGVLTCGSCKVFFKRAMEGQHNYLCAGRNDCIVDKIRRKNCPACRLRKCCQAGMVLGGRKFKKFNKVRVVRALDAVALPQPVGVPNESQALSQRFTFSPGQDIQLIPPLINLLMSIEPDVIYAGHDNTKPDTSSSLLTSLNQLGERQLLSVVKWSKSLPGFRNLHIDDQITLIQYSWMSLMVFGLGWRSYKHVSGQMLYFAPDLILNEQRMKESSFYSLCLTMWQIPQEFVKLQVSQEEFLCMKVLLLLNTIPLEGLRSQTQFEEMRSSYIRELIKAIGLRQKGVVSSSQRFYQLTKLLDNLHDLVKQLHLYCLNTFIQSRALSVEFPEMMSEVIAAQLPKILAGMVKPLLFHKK

Structure (SMILES) | Ki [nM]
CCN1CCOc2cc3[nH]c(=O)cc(C(F)(F)F)c3cc21 | 5200
O=c1cc(C(F)(F)F)c2cc3c(cc2[nH]1)OCCN3CC(F)(F)F | 5300
O=c1cc(C(F)(F)F)c2cc3c(cc2[nH]1)OCCN3CC1CC1 | 2000
O=c1cc(C(F)(F)F)c2cc3c(cc2[nH]1)OCC1CCCCN31 (racemic) | > 10000
CC1CN(CC(F)(F)F)c2cc3c(C(F)(F)F)cc(=O)[nH]c3cc2O1 (racemic) | 7000
CCC1COc2cc3[nH]c(=O)cc(C(F)(F)F)c3cc2N1CC1CC1 (racemic) | 5400

target: T2, Mineralocorticoid receptor (Homo sapiens, UniProt P08235); assay: not given
T2 sequence (P08235 whole entry): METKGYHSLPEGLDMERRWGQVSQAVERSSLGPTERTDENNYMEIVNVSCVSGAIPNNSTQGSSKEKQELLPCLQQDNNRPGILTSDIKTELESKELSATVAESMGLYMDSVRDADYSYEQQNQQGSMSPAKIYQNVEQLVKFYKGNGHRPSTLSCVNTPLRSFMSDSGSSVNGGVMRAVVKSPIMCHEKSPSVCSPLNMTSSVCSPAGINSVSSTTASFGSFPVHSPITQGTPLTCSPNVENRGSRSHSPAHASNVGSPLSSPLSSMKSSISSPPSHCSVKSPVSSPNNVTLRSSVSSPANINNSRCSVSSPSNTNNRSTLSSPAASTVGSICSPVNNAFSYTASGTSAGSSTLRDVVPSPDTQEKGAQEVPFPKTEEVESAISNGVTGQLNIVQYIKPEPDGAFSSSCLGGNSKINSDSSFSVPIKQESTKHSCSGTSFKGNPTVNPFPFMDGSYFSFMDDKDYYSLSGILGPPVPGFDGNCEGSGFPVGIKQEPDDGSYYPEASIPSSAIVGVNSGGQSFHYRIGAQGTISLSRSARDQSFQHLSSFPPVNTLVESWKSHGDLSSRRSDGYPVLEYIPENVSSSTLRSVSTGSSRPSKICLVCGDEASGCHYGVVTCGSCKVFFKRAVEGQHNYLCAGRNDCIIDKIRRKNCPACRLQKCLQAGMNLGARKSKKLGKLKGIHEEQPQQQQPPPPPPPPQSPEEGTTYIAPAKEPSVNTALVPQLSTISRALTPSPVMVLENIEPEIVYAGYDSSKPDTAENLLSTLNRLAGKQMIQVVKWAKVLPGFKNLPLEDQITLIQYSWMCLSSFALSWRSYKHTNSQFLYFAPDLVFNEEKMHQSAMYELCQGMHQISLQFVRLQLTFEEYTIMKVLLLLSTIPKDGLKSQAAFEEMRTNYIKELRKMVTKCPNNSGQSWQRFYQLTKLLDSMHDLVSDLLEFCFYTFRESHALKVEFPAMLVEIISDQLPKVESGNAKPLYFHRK

Structure (SMILES) | Ki [nM]
CCN1CCOc2cc3[nH]c(=O)cc(C(F)(F)F)c3cc21 | > 10000
O=c1cc(C(F)(F)F)c2cc3c(cc2[nH]1)OCCN3CC(F)(F)F | > 10000
O=c1cc(C(F)(F)F)c2cc3c(cc2[nH]1)OCCN3CC1CC1 | > 10000
CC1CN(CC(F)(F)F)c2cc3c(C(F)(F)F)cc(=O)[nH]c3cc2O1 (racemic) | > 10000

target: T3, Androgen receptor (Homo sapiens, UniProt P10275); assay: not given
T3 sequence (P10275 whole entry): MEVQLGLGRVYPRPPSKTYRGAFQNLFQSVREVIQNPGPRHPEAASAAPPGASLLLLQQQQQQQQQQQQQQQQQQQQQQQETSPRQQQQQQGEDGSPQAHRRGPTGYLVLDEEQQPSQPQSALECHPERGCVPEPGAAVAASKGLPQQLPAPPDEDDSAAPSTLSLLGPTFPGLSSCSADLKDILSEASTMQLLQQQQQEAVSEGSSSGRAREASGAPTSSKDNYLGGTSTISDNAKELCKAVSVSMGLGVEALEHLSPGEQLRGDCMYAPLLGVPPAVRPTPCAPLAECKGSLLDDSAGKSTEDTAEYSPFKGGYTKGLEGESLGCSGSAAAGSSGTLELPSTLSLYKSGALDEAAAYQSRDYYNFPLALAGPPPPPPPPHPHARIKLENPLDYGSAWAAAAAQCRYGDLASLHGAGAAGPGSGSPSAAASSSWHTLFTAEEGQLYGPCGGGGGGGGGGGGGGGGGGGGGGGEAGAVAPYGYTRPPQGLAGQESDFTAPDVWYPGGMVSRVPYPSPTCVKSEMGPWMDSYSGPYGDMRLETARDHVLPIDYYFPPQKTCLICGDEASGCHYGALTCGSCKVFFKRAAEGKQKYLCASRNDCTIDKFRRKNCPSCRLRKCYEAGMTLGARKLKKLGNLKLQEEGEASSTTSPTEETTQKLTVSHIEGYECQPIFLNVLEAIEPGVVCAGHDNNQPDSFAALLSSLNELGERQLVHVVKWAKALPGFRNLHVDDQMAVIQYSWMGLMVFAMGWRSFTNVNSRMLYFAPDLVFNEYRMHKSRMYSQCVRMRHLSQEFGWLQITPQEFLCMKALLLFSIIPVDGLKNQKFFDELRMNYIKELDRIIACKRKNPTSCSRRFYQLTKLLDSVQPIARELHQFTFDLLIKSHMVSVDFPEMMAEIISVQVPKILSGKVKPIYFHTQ

Structure (SMILES) | EC50 [nM]
CC(C)[C@@H]1COc2cc3[nH]c(=O)cc(C(F)(F)F)c3cc2N1CC(F)(F)F | 5.9
CC(C)CN1CCOc2cc3[nH]c(=O)cc(C(F)(F)F)c3cc21 | 3.2
CC(C)C[C@@H]1COc2cc3[nH]c(=O)cc(C(F)(F)F)c3cc2N1CC(F)(F)F | 27
O=c1cc(C(F)(F)F)c2cc3c(cc2[nH]1)OC[C@H]1CCCN31 | 26
CC(C)(C)N1CCOc2cc3[nH]c(=O)cc(C(F)(F)F)c3cc21 | 7.8
O=c1cc(C(F)(F)F)c2cc3c(cc2[nH]1)OCCN3Cc1ccccc1 | > 10000
O=c1cc(C(F)(F)F)c2cc3c(cc2[nH]1)OCC1CCCCN31 (racemic) | 14
CCC1COc2cc3[nH]c(=O)cc(C(F)(F)F)c3cc2N1CC1CC1 (racemic) | 2.3

target: T3, Androgen receptor; assay: not given; remark: another data set of the same source

Structure (SMILES) | IC50 [nM]
CCN1CCOc2cc3[nH]c(=O)cc(C(F)(F)F)c3cc21 | > 10000
O=c1cc(C(F)(F)F)c2cc3c(cc2[nH]1)OCCN3CC(F)(F)F | > 10000
CC(C)(C)N1CCOc2cc3[nH]c(=O)cc(C(F)(F)F)c3cc21 | > 10000
O=c1cc(C(F)(F)F)c2cc3c(cc2[nH]1)OCCN3Cc1ccccc1 | 224

target: T4, Glucocorticoid receptor (Homo sapiens, UniProt P04150); assay: Displacement of radiolabeled Dexamethasone from human GR
T4 sequence (P04150 whole entry): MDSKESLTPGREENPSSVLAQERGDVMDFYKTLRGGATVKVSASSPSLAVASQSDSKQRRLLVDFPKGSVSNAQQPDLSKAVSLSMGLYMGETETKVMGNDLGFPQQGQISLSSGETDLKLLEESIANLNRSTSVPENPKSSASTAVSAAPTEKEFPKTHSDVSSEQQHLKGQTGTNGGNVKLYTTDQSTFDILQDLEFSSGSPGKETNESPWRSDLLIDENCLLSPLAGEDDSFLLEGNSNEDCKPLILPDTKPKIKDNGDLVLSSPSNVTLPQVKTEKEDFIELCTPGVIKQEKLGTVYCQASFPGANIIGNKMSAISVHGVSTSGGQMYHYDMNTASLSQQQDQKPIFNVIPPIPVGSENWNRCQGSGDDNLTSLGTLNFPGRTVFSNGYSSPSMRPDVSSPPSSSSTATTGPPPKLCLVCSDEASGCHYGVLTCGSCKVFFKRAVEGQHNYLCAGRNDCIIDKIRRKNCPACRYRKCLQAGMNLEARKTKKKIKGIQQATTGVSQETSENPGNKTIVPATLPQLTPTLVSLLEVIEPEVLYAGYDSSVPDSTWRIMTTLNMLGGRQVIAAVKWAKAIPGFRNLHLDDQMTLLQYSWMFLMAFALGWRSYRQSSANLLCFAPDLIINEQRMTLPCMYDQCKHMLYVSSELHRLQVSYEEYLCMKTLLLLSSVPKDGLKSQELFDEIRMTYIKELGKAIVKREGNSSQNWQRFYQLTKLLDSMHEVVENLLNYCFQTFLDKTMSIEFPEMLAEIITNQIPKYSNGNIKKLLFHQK

Structure (SMILES) | Ki [nM]
CCN1CCOc2cc3[nH]c(=O)cc(C(F)(F)F)c3cc21 | 8100
O=c1cc(C(F)(F)F)c2cc3c(cc2[nH]1)OCCN3CC(F)(F)F | 9200
O=c1cc(C(F)(F)F)c2cc3c(cc2[nH]1)OCCN3CC1CC1 | 8800
O=c1cc(C(F)(F)F)c2cc3c(cc2[nH]1)OCC1CCCCN31 (racemic) | > 10000
CC1CN(CC(F)(F)F)c2cc3c(C(F)(F)F)cc(=O)[nH]c3cc2O1 (racemic) | > 10000
CCC1COc2cc3[nH]c(=O)cc(C(F)(F)F)c3cc2N1CC1CC1 (racemic) | > 10000

target: T3, Androgen receptor; assay: biochemical
Description: Displacement of [3H]DHT from human AR expressed in MDA-MB-453 cells

Structure (SMILES) | Ki [nM]
CC(C)[C@@H]1COc2cc3[nH]c(=O)cc(C(F)(F)F)c3cc2N1CC(F)(F)F | 51
CC(C)CN1CCOc2cc3[nH]c(=O)cc(C(F)(F)F)c3cc21 | 17
CC(C)C[C@@H]1COc2cc3[nH]c(=O)cc(C(F)(F)F)c3cc2N1CC(F)(F)F | 109
O=c1cc(C(F)(F)F)c2cc3c(cc2[nH]1)OC[C@H]1CCCN31 | 27
CC(C)(C)N1CCOc2cc3[nH]c(=O)cc(C(F)(F)F)c3cc21 | 48
O=c1cc(C(F)(F)F)c2cc3c(cc2[nH]1)OCCN3Cc1ccccc1 | 206
O=c1cc(C(F)(F)F)c2cc3c(cc2[nH]1)OCC1CCCCN31 (racemic) | 16
CCC1COc2cc3[nH]c(=O)cc(C(F)(F)F)c3cc2N1CC1CC1 (racemic) | 23

Reference: ChEMBL document CHEMBL1139861, “Novel series of potent, nonsteroidal, selective androgen receptor modulators based on 7H-[1,4]oxazino[3,2-g]quinolin-7-ones” (J Med Chem, 2007)
